# Assay results from patent US8492426B1, “Use of carvedilol for treatment of diabetes mellitus” (priority 2012, dated 2013).
# Experiments:
# [1] = test system: patients with diabetes mellitus already on insulin; assay: Group 1: diabetes mellitus patients already on insulin with uncontrolled blood sugar, prescribed Carvedilol with diet; type: in vivo, human
# Description: Data has been collected utilizing the various methods described herein and included for purposes of showing results and further exemplifying the preferred embodiments of this invention. A study was performed on two groups: Group 1 and Group 2. Both groups included patients with diabetes mellitus and a history of uncontrolled blood sugar. The patients of each group were between the ages of 40 and 85 and consisted of both males and females and various ethnicities. Group 1 consisted of patients that were already on insulin (humulin mix, novolog mix, etc.) and who were unable to control their blood sugar. The patients in Group 2 were taking oral medications, were unable to control their blood sugar, and needed insulin to regulate their disease. Normal blood sugar levels were considered to be 120 mg % (mg % is milligram per 100 cc blood), which was equivalent to 6.0 HbA1c before meals or while fasting. After the first visit and examination, the patients' blood sugar and HbA1c levels were reviewed. […] Then patients were requested to report their blood sugar weekly. […] HbA1c levels were checked approximately 2-3 months after controlling the blood sugar. Group 1 data is presented below for patients with Type II diabetes mellitus who were already taking insulin and were unable to control their blood sugar. The data includes blood sugar and HbA1c levels before and after taking Carvedilol. • 1. JBM-65-M was first seen in January 2012. Their HbA1c was more than 9.0 and fasting plasma glucose was 282 mg %. They were taking 35 units at night of Lente insulin and regular insulin before each meal at a dosage of 10-30 units, on a sliding scale. They began taking an effective dosage of Carvedilol with a diet in February 2012. […] BS-81-F was taking 36 units of Humulin N twice a day in February 2012. Their HbA1c was 7.6 and mean plasma glucose was 171 mg %. They began taking an effective dosage of Carvedilol immediately. In April 2012 their HbA1c was 6.5 and their mean plasma glucose was 140 mg %. […] patient four is a Type I diabetic with two episodes of myocardial infarction and four stents post Percutaneous Transluminal Coronary Angioplasty (PTCA). In January 2012 […] HbA1c was 8.2 with a mean […] glucose of 203 mg %. They were taking 400 units of Novolog mix 70/30 in two divided doses. After Carvedilol and an improved diet, the dose of insulin has been reduced to a total of 90 units a day in two divided doses. Their HbA1c is the same but recent blood sugar was 134 mg %. • 4. […] They were taking Novolog 70/30 40 units twice a day. They were started on Carvedilol with an improved diet. […] Currently they are reporting a plasma blood glucose below 120 mg %. • 5. […] They were taking Novlog mix 70/30 20 units twice a day. […] Group 2
# [2] = test system: Type II diabetes mellitus patients; assay: Group 2: Type II diabetes mellitus patients uncontrolled on diet and oral medication, Carvedilol used in place of insulin; type: in vivo, human
# Description: Data has been collected utilizing the various methods described herein and included for purposes of showing results and further exemplifying the preferred embodiments of this invention. A study was performed on two groups: Group 1 and Group 2. Both groups included patients with diabetes mellitus and a history of uncontrolled blood sugar. The patients of each group were between the ages of 40 and 85 and consisted of both males and females and various ethnicities. Group 1 consisted of patients that were already on insulin (humulin mix, novolog mix, etc.) and who were unable to control their blood sugar. The patients in Group 2 were taking oral medications, were unable to control their blood sugar, and needed insulin to regulate their disease.
# Normal blood sugar levels were considered to be 120 mg % (mg % is milligram per 100 cc blood), which was equivalent to 6.0 HbA1c before meals or while fasting. After the first visit and examination, the patients' blood sugar and HbA1c levels were reviewed. […] Then patients were requested to report their blood sugar weekly. […] HbA1c levels were checked approximately 2-3 months after controlling the blood sugar.
# Group 2 consisted of Type II diabetes mellitus patients who could not control their blood sugar on diet nor oral medication and would need to start insulin. Carvedilol was used in place of insulin to control blood sugar as well as other anti-diabetic oral medications. • 1. […] Sitagliptin was then discontinued and the hypoglycemia subsequently disappeared. […] The last recorded HbA1c was 6.8 • 2. patient three had poorly controlled blood sugar but managed an HbA1c of 8.0 and mean fasting glucose of 183 mg %. They were taking three oral medications: Metformin 1000 mg BID, Sitagliptin 100 mg daily and Sulfonylurea. They were started on Carvedilol and their blood sugar came down to 90 mg %. […] Their HbA1c level is 6.5 • 3. […] They were prescribed Metformin and Glyburide Micro. They were also given Bayetta, however their blood sugar remained uncontrolled. […] Their HbA1c level is 8.4 • 4. […] The patient also suffered from severe Peripheral Neuritis. Their HbA1c was 10.2 in December 2011. The patient was taking Metformin 1000 mg twice a day, Sitagliptin 100 mg daily and Glyburide Micro 6 mg twice a day. The patient was started on Carvedilol in February 2012. Their HbA1c in late March 2012 was down to 8.2 with a mean plasma glucose of 189 mg %. […] Their HbA1c is now 7.8. • 5. […] They have been on Janumet […] twice a day, Glymeperide which was changed to Glyburide Micro 3 mg twice daily. […] Carvedilol was added to their regimen and their blood sugar was recently reported at 81 mg %. […] Their HbA1c level is 7.1
structure (smiles),measurement,setting,value
"COc1ccccc1OCCNCC(O)COc1cccc2[nH]c3ccccc3c12 (racemic) [Carvedilol, (±)-1-(Carbazol-4-yloxy-3-[[2-(o-methoxyphenoxy-)ethyl]amino]-2-propanol]",fasting plasma glucose,"[1]; patient five, April 2012, Carvedilol with diet since February 2012, before: 282 mg %",122 mg %
same,HbA1c,"[1]; patient five, April 2012, Carvedilol with diet since February 2012, before: more than 9.0",5.5
same,insulin use after Carvedilol,"[1]; patient five, by April 2012, before: 35 units Lente at night plus 10-30 units regular insulin before each meal",taken off insulin completely
same,dose of insulin after Carvedilol,"[1]; patient four, Type I diabetic, Carvedilol and improved diet, two divided doses, before: 400 units Novolog mix 70/30",90 units a day
same,HbA1c,"[1]; patient four, Type I diabetic, after Carvedilol and improved diet, before: 8.2",the same
same,recent blood sugar,"[1]; patient four, Type I diabetic, after Carvedilol and improved diet, before: mean plasma glucose 203 mg %",134 mg %
same,mean plasma glucose,"[1]; patient nine, April 2012, Carvedilol since February 2012, before: 171 mg %",140 mg %
same,HbA1c,"[1]; patient nine, April 2012, Carvedilol since February 2012, before: 7.6",6.5
same,insulin use after Carvedilol,"[1]; patient nine, by April 2012, before: 36 units Humulin N twice a day",taken off of insulin completely
same,plasma glucose,"[1]; patient seven, renal failure, after five weeks on Carvedilol, off insulin, before: 249 mg %",below 120 mg %
same,HbA1c corresponding to plasma glucose,"[1]; patient seven, after five weeks on Carvedilol, before: 10.3",6.0
same,insulin use after Carvedilol,"[1]; patient seven, after five weeks on Carvedilol, before: Novlog mix 70/30 20 units twice a day",taken off insulin
same,HbA1c,"[1]; patient two, April 2012, Carvedilol with improved diet, off insulin, before (December 2011): 11.4",8.6
same,plasma blood glucose,"[1]; patient two, April 2012, before: 280 mg %",200 mg %
same,insulin use after Carvedilol,"[1]; patient two, before: Novolog 70/30 40 units twice a day",came off of insulin
same,plasma blood glucose,"[1]; patient two, currently reported",below 120 mg %
same,other anti-diabetic medication after Carvedilol,[2]; patient -76,able to stop Glyburide Micro
same,blood sugar,"[2]; patient -76, Carvedilol added to regimen, before: 273 mg % after cortisone shot, mean plasma glucose 163 mg %",81 mg %
same,HbA1c,"[2]; patient -76, on Carvedilol, before: 8.3",7.1
same,HbA1c,"[2]; patient eight, started Carvedilol recently, before: 8.5",8.4
same,blood sugar,"[2]; patient eight, started Carvedilol recently, before: fasting plasma glucose 197 mg %, uncontrolled on Metformin, Glyburide Micro, Bayetta",reached normal levels
same,adverse effect,"[2]; patient one, Carvedilol taken together with Sitagliptin, disappeared after Sitagliptin was discontinued",hypoglycemia
same,last recorded HbA1c,"[2]; patient one, Carvedilol, Sitagliptin discontinued",6.8
same,blood sugar control,"[2]; patient one, Carvedilol, Sitagliptin discontinued, before: blood sugar 200 mg %",controlled the patient's blood sugar
same,other anti-diabetic medication after Carvedilol,[2]; patient six,stopped taking Glyburide Micro
same,mean plasma glucose,"[2]; patient six, late March 2012, Carvedilol since February 2012",189 mg %
same,HbA1c,"[2]; patient six, late March 2012, Carvedilol since February 2012, before (December 2011): 10.2",8.2
same,blood sugar,"[2]; patient six, more recently reported",95 mg %
same,HbA1c,"[2]; patient six, now, after stopping Glyburide Micro",7.8
same,other anti-diabetic medication after Carvedilol,[2]; patient three,discontinued use of Sitagliptin
same,blood sugar,"[2]; patient three, Carvedilol added to Metformin, Sitagliptin, Sulfonylurea, before: mean fasting glucose 183 mg %",90 mg %
same,HbA1c,"[2]; patient three, on Carvedilol, Sitagliptin discontinued, before: 8.0",6.5
